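Test compounds were applied to cells in 96-well plates for 48 hours at 5 doses. GI50 marks 50% less growth.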 Active and inactive are the calls of the source. Cut-off read from the data, not from the text of the source: active = GI50 up to about 1.1 µM and inactive = higher.
Key:
Test in all cases: NCI anticancer screen, dose series, 48 h
786-0 = system: 786-0
A498 = system: A498
A549 = system: A549
ACHN = system: ACHN
BT-549 = system: BT-549
CAKI-1 = system: CAKI-1
CCRF-CEM = system: CCRF-CEM
COLO 205 = system: COLO 205
DU-145 = system: DU-145
EKVX = system: EKVX
HCT-116 = system: HCT-116
HCT-15 = system: HCT-15
HL-60 = system: HL-60
HOP-62 = system: HOP-62
HOP-92 = system: HOP-92
HT-29 = system: HT-29
Hs-578T = system: Hs-578T
IGROV-1 = system: IGROV-1
K562 = system: K562
KM12 = system: KM12
LOX IMVI = system: LOX IMVI
M14 = system: M14
MCF7 = system: MCF7
MDA-MB-231 = system: MDA-MB-231
MDA-MB-435 = system: MDA-MB-435
MDA-N = system: MDA-N
MOLT-4 = system: MOLT-4
Malme-3M = system: Malme-3M
NCI-H226 = system: NCI-H226
NCI-H23 = system: NCI-H23
NCI-H522 = system: NCI-H522
NCI/ADR-RES = system: NCI/ADR-RES
OVCAR-3 = system: OVCAR-3
OVCAR-4 = system: OVCAR-4
OVCAR-5 = system: OVCAR-5
OVCAR-8 = system: OVCAR-8
PC-3 = system: PC-3
RPMI-8226 = system: RPMI-8226
SF-268 = system: SF-268
SF-295 = system: SF-295
SF-539 = system: SF-539
SK-MEL-28 = system: SK-MEL-28
SK-MEL-2 = system: SK-MEL-2
SK-MEL-5 = system: SK-MEL-5
SK-OV-3 = system: SK-OV-3
SN12C = system: SN12C
SNB-19 = system: SNB-19
SR = system: SR
SW-620 = system: SW-620
T47D = system: T47D
TK-10 = system: TK-10
U-251 = system: U-251
UACC-257 = system: UACC-257
UACC-62 = system: UACC-62
UO-31 = system: UO-31
HCC 2998 = system: HCC 2998
NCI-H460 = system: NCI-H460
RXF 393 = system: RXF 393
SNB-75 = system: SNB-75

## COc1ccc2c3c1O[C@H]1C(O)CCC4(O)[C@@H](C2)NCC[C@]314 (some centres not stated)
786-0
  GI50: > 100 µM (inactive)
A498
  GI50: > 100 µM (inactive)
A549
  GI50: > 100 µM (inactive)
ACHN
  GI50: > 100 µM (inactive)
BT-549
  GI50: > 100 µM (inactive)
CAKI-1
  GI50: > 100 µM (inactive)
CCRF-CEM
  GI50: > 100 µM (inactive)
COLO 205
  GI50: > 100 µM (inactive)
DU-145
  GI50: > 100 µM (inactive)
EKVX
  GI50: > 100 µM (inactive)
HCT-116
  GI50: > 100 µM (inactive)
HCT-15
  GI50: > 100 µM
HL-60
  GI50: > 100 µM (inactive)
HOP-62
  GI50: > 100 µM (inactive)
HOP-92
  GI50: > 100 µM (inactive)
HT-29
  GI50: > 100 µM (inactive)
Hs-578T
  GI50: > 100 µM (inactive)
IGROV-1
  GI50: > 100 µM (inactive)
K562
  GI50: > 100 µM (inactive)
KM12
  GI50: > 100 µM (inactive)
LOX IMVI
  GI50: > 100 µM (inactive)
M14
  GI50: > 100 µM (inactive)
MCF7
  GI50: > 100 µM (inactive)
MDA-MB-231
  GI50: > 100 µM (inactive)
MDA-MB-435
  GI50: > 100 µM (inactive)
MDA-N
  GI50: > 100 µM (inactive)
MOLT-4
  GI50: > 100 µM (inactive)
Malme-3M
  GI50: > 100 µM (inactive)
NCI-H226
  GI50: > 100 µM (inactive)
NCI-H23
  GI50: > 100 µM (inactive)
NCI-H522
  GI50: > 100 µM (inactive)
NCI/ADR-RES
  GI50: > 100 µM (inactive)
OVCAR-3
  GI50: > 100 µM (inactive)
OVCAR-4
  GI50: > 100 µM (inactive)
OVCAR-5
  GI50: > 100 µM (inactive)
OVCAR-8
  GI50: > 100 µM (inactive)
PC-3
  GI50: > 100 µM (inactive)
RPMI-8226
  GI50: > 100 µM (inactive)
SF-268
  GI50: > 100 µM (inactive)
SF-295
  GI50: > 100 µM (inactive)
SF-539
  GI50: > 100 µM (inactive)
SK-MEL-28
  GI50: > 100 µM (inactive)
SK-MEL-2
  GI50: > 100 µM (inactive)
SK-MEL-5
  GI50: > 100 µM (inactive)
SK-OV-3
  GI50: > 100 µM (inactive)
SN12C
  GI50: > 100 µM (inactive)
SNB-19
  GI50: > 100 µM (inactive)
SR
  GI50: > 100 µM (inactive)
SW-620
  GI50: > 100 µM (inactive)
T47D
  GI50: > 100 µM (inactive)
TK-10
  GI50: > 100 µM (inactive)
U-251
  GI50: > 100 µM (inactive)
UACC-257
  GI50: > 100 µM (inactive)
UACC-62
  GI50: > 100 µM (inactive)
UO-31
  GI50: > 100 µM (inactive)

## Oc1ccc(O)c(CNc2ccccc2)c1
786-0
  GI50: 10.3 µM (inactive)
A549
  GI50: 26.4 µM (inactive)
ACHN
  GI50: 10.5 µM (inactive)
BT-549
  GI50: 7.93 µM (inactive)
CAKI-1
  GI50: 6.89 µM (inactive)
CCRF-CEM
  GI50: 2.37 µM (inactive)
COLO 205
  GI50: 18.8 µM (inactive)
DU-145
  GI50: 12.3 µM (inactive)
EKVX
  GI50: 18.7 µM (inactive)
HCC 2998
  GI50: 26.2 µM (inactive)
HCT-116
  GI50: 7.26 µM (inactive)
HCT-15
  GI50: 10.3 µM
HL-60
  GI50: 2.67 µM (inactive)
HOP-92
  GI50: 5.07 µM (inactive)
HT-29
  GI50: 32.2 µM (inactive)
Hs-578T
  GI50: 25.5 µM (inactive)
IGROV-1
  GI50: 8.53 µM (inactive)
K562
  GI50: 1.65 µM (inactive)
KM12
  GI50: 5.13 µM (inactive)
LOX IMVI
  GI50: 6.15 µM (inactive)
M14
  GI50: 15.7 µM (inactive)
MCF7
  GI50: 15.1 µM (inactive)
MDA-MB-231
  GI50: 17.7 µM (inactive)
MDA-MB-435
  GI50: 8.81 µM (inactive)
MDA-N
  GI50: 3.85 µM (inactive)
MOLT-4
  GI50: 2.26 µM (inactive)
Malme-3M
  GI50: 14.2 µM (inactive)
NCI-H226
  GI50: 26.7 µM (inactive)
NCI-H23
  GI50: 10.2 µM (inactive)
NCI-H460
  GI50: 20.8 µM (inactive)
NCI-H522
  GI50: 1.94 µM (inactive)
NCI/ADR-RES
  GI50: 7.01 µM (inactive)
OVCAR-3
  GI50: 4.62 µM (inactive)
OVCAR-4
  GI50: 13 µM (inactive)
OVCAR-5
  GI50: 21.6 µM (inactive)
OVCAR-8
  GI50: 8.02 µM (inactive)
PC-3
  GI50: 10.1 µM (inactive)
RPMI-8226
  GI50: 1.02 µM (active)
RXF 393
  GI50: 5.64 µM (inactive)
SF-268
  GI50: 11.6 µM (inactive)
SF-295
  GI50: 12.1 µM (inactive)
SF-539
  GI50: 3.46 µM (inactive)
SK-MEL-28
  GI50: 33 µM (inactive)
SK-MEL-2
  GI50: 24.2 µM (inactive)
SK-MEL-5
  GI50: 16.8 µM (inactive)
SK-OV-3
  GI50: 19.2 µM (inactive)
SN12C
  GI50: 11.3 µM (inactive)
SNB-19
  GI50: 19.5 µM (inactive)
SNB-75
  GI50: 33.5 µM (inactive)
SR
  GI50: 2.29 µM (inactive)
SW-620
  GI50: 13.6 µM (inactive)
T47D
  GI50: 8.41 µM (inactive)
TK-10
  GI50: 22.7 µM (inactive)
U-251
  GI50: 17.1 µM (inactive)
UACC-257
  GI50: 16.9 µM (inactive)
UACC-62
  GI50: 13.3 µM (inactive)
UO-31
  GI50: 10.7 µM (inactive)

From ChEMBL document CHEMBL1201862, “PubChem BioAssay data set” (2004)
